# From patent publication US5063242A (priority 1990, dated 1991)
# Test system: carrageenan footpad edema in rats
# Settings: rat, in vivo, po, 5 mg/kg
compound,measurement,value
COc1ccc2c(c1)c(CC(=O)O)c(C)n2C(=O)c1ccc(Cl)cc1 [Indomethacin],% I,48%
same,Delta Edema (x ± SEM),40 ± 2.5
